Reference: paper PMC7272483, “Insights into the pH-dependent, extracellular sucrose utilization and concomitant levan formation by Gluconobacter albidus TMW 2.1191” (Antonie Van Leeuwenhoek, 2020)

Target: T1, levansucrase of G. albidus TMW 2.1191 (Gluconobacter albidus, UniProt A0A149SZ56)
T1 construct: gene lsc-2; cloned levansucrase gene expressed from pBAD in E. coli Top 10, crude lysate (Ni-NTA purification failed); native released enzyme ~48 kDa monomer, also tested in crude buffer supernatant
T1 sequence (A0A149SZ56 1-436): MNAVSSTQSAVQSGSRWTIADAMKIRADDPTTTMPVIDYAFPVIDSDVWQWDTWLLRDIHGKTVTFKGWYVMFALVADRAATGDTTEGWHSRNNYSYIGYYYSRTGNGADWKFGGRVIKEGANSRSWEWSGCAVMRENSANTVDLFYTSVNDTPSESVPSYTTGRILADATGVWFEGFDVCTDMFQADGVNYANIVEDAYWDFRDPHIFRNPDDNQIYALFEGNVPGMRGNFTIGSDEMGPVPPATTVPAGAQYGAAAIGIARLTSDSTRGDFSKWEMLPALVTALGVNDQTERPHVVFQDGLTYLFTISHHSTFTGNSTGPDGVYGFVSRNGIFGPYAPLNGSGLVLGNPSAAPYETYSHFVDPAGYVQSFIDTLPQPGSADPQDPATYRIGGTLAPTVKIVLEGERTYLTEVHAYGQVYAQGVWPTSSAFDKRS
Test: glucose/fructose release, enzymatic D-fructose/D-glucose kit
Type: cell-based
Conditions: E. coli lysate with recombinant enzyme; pH 3.0-7.0, 30 °C, 1 h; hydrolysis and transfructosylation

OC[C@H]1O[C@@](CO)(O[C@H]2O[C@H](CO)[C@@H](O)[C@H](O)[C@H]2O)[C@@H](O)[C@@H]1O [sucrose]
volumetric activity: the enzyme exhibits comparable activities and Michaelis–Menten kinetics within a broad pH range
